Activity calls are given as the source filed them. No cut-off for these calls is given here.
Key:
MDA-MB-231 [1] = assay: Induction of apoptosis in human MDA-MB-231 cells assessed as cIAP1 degradation at 10 nM after 24 hrs by Western blotting; format: functional, cell-based
MDA-MB-231 [2] = assay: Induction of apoptosis in human MDA-MB-231 cells assessed as cIAP2 degradation at 10 nM after 24 hrs by Western blotting; format: functional, cell-based
MDA-MB-231 [3] = assay: Induction of apoptosis in human MDA-MB-231 cells assessed as PARP cleavage at 3 nM after 24 hrs by Western blotting; format: functional, cell-based
MDA-MB-231 [4] = assay: Induction of apoptosis in human MDA-MB-231 cells assessed as caspase-3 processing at 10 nM after 24 hrs by Western blotting; format: functional, cell-based
MDA-MB-231 [5] = assay: Drug uptake in human MDA-MB-231 cells assessed as intracellular concentration at 300 nM after 3 hrs by LC-MS/MS; format: ADME, cell-based; conditions: mda-mb-231, 3 h, 0.3 µM
[6] = target: T1, Baculoviral IAP repeat-containing protein 2 (Homo sapiens, UniProt Q13490); assay: Binding affinity to human cIAP1 BIR2-BIR3 domain after 2 to 3 hrs by fluorescence polarization-based assay
MDA-MB-231 [7] = assay: Drug uptake in human MDA-MB-231 cells assessed as intracellular concentration at 300 nM after 1 min by LC-MS/MS; format: ADME, cell-based; conditions: mda-mb-231, 1 min, 0.3 µM
MDA-MB-231 [8] = assay: Induction of apoptosis in human MDA-MB-231 cells assessed as cIAP1 degradation at 1 nM after 24 hrs by Western blotting; format: functional, cell-based
MDA-MB-231 [9] = assay: Induction of apoptosis in human MDA-MB-231 cells assessed as caspase-3 processing at 3 nM after 24 hrs by Western blotting; format: functional, cell-based
[10] = target: T1, Baculoviral IAP repeat-containing protein 2; assay: Binding affinity to human cIAP1 BIR3 domain after 2 to 3 hrs by fluorescence polarization-based assay
[11] = target: T1, Baculoviral IAP repeat-containing protein 2; assay: Competitive inhibition of human cIAP1 BIR3 domain after 2 to 3 hrs by fluorescence polarization assay
[12] = target: T1, Baculoviral IAP repeat-containing protein 2; assay: Competitive inhibition of human cIAP1BIR2-BIR3 domain after 2 to 3 hrs by fluorescence polarization assay
MDA-MB-231 [13] = assay: Induction of apoptosis in human MDA-MB-231 cells assessed as cIAP2 degradation at 1 nM after 24 hrs by Western blotting; format: functional, cell-based
MDA-MB-231 [14] = assay: cells; conditions: Homo sapiens
Mus musculus [15] = assay: Toxicity in SCID mouse xenografted with human MDA-MB-231 cells assessed as weight loss at 5 mg/kg, iv administered on day 1 to 5 and 8 to 12 post tumor implantation; format: organism-based; design: dose 5 mg/kg, route intravenous; conditions: in vivo
MDA-MB-231 [16] = assay: Antitumor activity against human MDA-MB-231 cells xenografted in SCID mouse assessed as tumor size at 5 mg/kg, iv administered on day 1 to 5 and 8 to 12 post tumor implantation measured on day 50 (reference value: 1136 mm'3); format: functional
MDA-MB-231 [17] = conditions: Homo sapiens, 5 mg/kg
MDA-MB-231 [18] = assay: Antitumor activity against human MDA-MB-231 cells xenografted in SCID mouse assessed as inhibition tumor growth intravenously administered on day 1 to 5 and 8 to 12 post tumor implantation; format: functional, cell-based
[19] = target: T2, E3 ubiquitin-protein ligase XIAP (Homo sapiens, UniProt P98170); assay: biochemical
[20] = target: T2, E3 ubiquitin-protein ligase XIAP; assay: Competitive inhibition of His-tagged human XIAP BIR3 domain expressed in Escherichia coli BL21(DE3) after 2 to 3 hrs by fluorescence polarization assay
[21] = target: T2, E3 ubiquitin-protein ligase XIAP
[22] = target: T2, E3 ubiquitin-protein ligase XIAP; assay: Competitive inhibition of human XIAP linker BIR2-BIR3 domain expressed in Escherichia coli BL21(DE3) cells by fluorescence polarization-based assay
MDA-MB-231 [23] = assay: Induction of apoptosis in human MDA-MB-231 cells assessed as caspase-3 processing at 30 nM after 24 hrs by Western blotting; format: functional, cell-based
MDA-MB-231 [24] = assay: Induction of apoptosis in human MDA-MB-231 cells assessed as PARP cleavage at 30 nM after 24 hrs by Western blotting; format: functional, cell-based
Mus musculus [25] = assay: Toxicity in SCID mouse xenografted with human MDA-MB-231 cells assessed as weight loss at […], iv administered on day 2 and 9; format: organism-based; design: dose 7.5 mg/kg, route intravenous; conditions: in vivo
MDA-MB-231 [26] = assay: Induction of apoptosis in human MDA-MB-231 cells assessed as cIAP2 degradation at 30 nM after 24 hrs by Western blotting; format: functional, cell-based

CN[C@@H](C)C(=O)N[C@H]1CCCC[C@H]2CC[C@@H](C(=O)N[C@@H](c3ccccc3)c3cn(CCCc4ccc(CCCn5cc([C@@H](NC(=O)[C@@H]6CC[C@@H]7CCCC[C@H](NC(=O)[C@H](C)NC)C(=O)N76)c6ccccc6)nn5)cc4)nn3)N2C1=O
Activity (MDA-MB-231 [1]): Active | Activity (MDA-MB-231 [2]): Active | Activity (MDA-MB-231 [3]): Active | Activity (MDA-MB-231 [4]): Active

CN[C@@H](C)C(=O)N[C@H]1CCCC[C@H]2CC[C@@H](C(=O)N[C@@H](c3ccccc3)c3cn(CCCCc4ccc(CCCCn5cc([C@@H](NC(=O)[C@@H]6CC[C@@H]7CCCC[C@H](NC(=O)[C@H](C)NC)C(=O)N76)c6ccccc6)nn5)cc4)nn3)N2C1=O
Drug uptake (MDA-MB-231 [5]): 541 nM | Ki [6]: 1.5 nM | Drug uptake (MDA-MB-231 [7]): 106 nM | Activity (MDA-MB-231 [8]): Active | Activity (MDA-MB-231 [9]): Active | Activity (MDA-MB-231 [3]): Active | Ki [10]: < 1 nM | IC50 [11]: 4.6 nM | IC50 [12]: 5.7 nM | Activity (MDA-MB-231 [13]): Active | IC50 (MDA-MB-231 [14]): 3.3 nM

CN[C@@H](C)C(=O)N[C@H]1CCCC[C@H]2CC[C@@H](C(=O)N[C@@H](c3ccccc3)c3cn(CCCCCOCCCCCn4cc([C@@H](NC(=O)[C@@H]5CC[C@@H]6CCCC[C@H](NC(=O)[C@H](C)NC)C(=O)N65)c5ccccc5)nn4)nn3)N2C1=O
Activity (Mus musculus [15]): Toxic | Activity (MDA-MB-231 [16]): 269 mm3 | inhibition (MDA-MB-231 [17]): Active | Activity (MDA-MB-231 [18]): Dose-dependent effect

CN[C@@H](C)C(=O)N[C@H]1CCCC[C@H]2CC[C@@H](C(=O)N[C@@H](c3ccccc3)c3cn(CCOCCOCCOCCn4cc([C@@H](NC(=O)[C@@H]5CC[C@@H]6CCCC[C@H](NC(=O)[C@H](C)NC)C(=O)N65)c5ccccc5)nn4)nn3)N2C1=O
Drug uptake (MDA-MB-231 [5]): 7.3 nM | Drug uptake (MDA-MB-231 [7]): 6.7 nM

CN[C@@H](C)C(=O)N[C@H]1CCCC[C@H]2CC[C@@H](C(=O)N[C@@H](c3ccccc3)c3cn(CCCCCCc4ccc(CCCCCCn5cc([C@@H](NC(=O)[C@@H]6CC[C@@H]7CCCC[C@H](NC(=O)[C@H](C)NC)C(=O)N76)c6ccccc6)nn5)cc4)nn3)N2C1=O
Activity (MDA-MB-231 [8]): Active | Activity (MDA-MB-231 [9]): Active | Activity (MDA-MB-231 [3]): Active | Activity (MDA-MB-231 [13]): Active

CC(=O)N[C@@H](Cc1c[nH]c2ccccc12)C(=O)N[C@H]1CCCC[C@H]2CC[C@@H](C(=O)N[C@@H](c3ccccc3)c3cn(CCCCc4ccc(CCCCn5cc([C@@H](NC(=O)[C@@H]6CC[C@@H]7CCCC[C@H](NC(=O)[C@H](Cc8c[nH]c9ccccc89)NC(C)=O)C(=O)N76)c6ccccc6)nn5)cc4)nn3)N2C1=O
Ki [19]: > 10000 nM | IC50 [20]: > 50000 nM | Ki [21]: > 10000 nM | IC50 [22]: > 50000 nM | IC50 (MDA-MB-231 [14]): > 100000 nM

CN[C@@H](C)C(=O)N[C@H]1CCCC[C@H]2CC[C@@H](C(=O)N[C@@H](c3ccccc3)c3cn(Cc4ccc(Cn5cc([C@@H](NC(=O)[C@@H]6CC[C@@H]7CCCC[C@H](NC(=O)[C@H](C)NC)C(=O)N76)c6ccccc6)nn5)cc4)nn3)N2C1=O
Drug uptake (MDA-MB-231 [5]): 75.2 nM | Drug uptake (MDA-MB-231 [7]): 21.2 nM | Activity (MDA-MB-231 [23]): inactive | Activity (MDA-MB-231 [24]): inactive

CC(=O)O[C@@]12CO[C@@H]1C[C@H](O)[C@@]1(C)C(=O)[C@H](O)C3=C(C)[C@@H](OC(=O)[C@H](O)[C@@H](NC(=O)OC(C)(C)C)c4ccccc4)C[C@@](O)([C@@H](OC(=O)c4ccccc4)[C@H]21)C3(C)C.O.O.O [DOCETAXEL]
Activity (Mus musculus [25]): Toxic

CN[C@@H](C)C(=O)N[C@H]1CCCC[C@H]2CC[C@@H](C(=O)N[C@@H](c3ccccc3)c3cn(CCc4ccc(CCn5cc([C@@H](NC(=O)[C@@H]6CC[C@@H]7CCCC[C@H](NC(=O)[C@H](C)NC)C(=O)N76)c6ccccc6)nn5)cc4)nn3)N2C1=O
Drug uptake (MDA-MB-231 [5]): 67.7 nM | Activity (MDA-MB-231 [23]): inactive | Activity (MDA-MB-231 [26]): Active | Activity (MDA-MB-231 [24]): inactive
